Measurements reported in ChEMBL document CHEMBL1125081, “Stereospecific synthesis and antiviral properties of different enantiomerically pure carbocyclic 2'-deoxyribonucleoside analogues derived from common chiral pools: (+)-(1R,5S)- and (-)-(1S,5R)-2-oxabicyclo[3.3.0]oct-6-en-3-one” (1990).
Values after ≈ are worked out from the molar mass of the structure shown.

Tests used:
[1] = test system: Vesicular stomatitis virus; experiment: Evaluated for minimum inhibitory concentration against Vesicular stomatitis virus (VSV) in primary rabbit kidney cells; type: functional
[2] = test system: Vaccinia virus; experiment: Evaluated for minimum inhibitory concentration against Vaccinia virus (VV) in primary rabbit kidney cells; type: functional; conditions: Orthopoxvirus vaccinia
[3] = test system: Human alphaherpesvirus 1; experiment: Evaluated for minimum inhibitory concentration against TK-B2006 strain of Herpes simplex virus (HSV-1) in primary rabbit kidney cells; type: functional
[4] = test system: Vero; experiment: Evaluated for minimum inhibitory concentration against Vero cells (African green monkey) infected with PV-3, RV-1, SV, Coxs B4, SFV virus; type: functional; conditions: Chlorocebus sabaeus
[5] = test system: Human alphaherpesvirus 2; experiment: Evaluated for minimum inhibitory concentration against G,196, Lyons strains of Herpes simplex virus (HSV-2) in primary rabbit kidney cells; type: functional
[6] = test system: HeLa; experiment: Evaluated for minimum inhibitory concentration against HeLa cells (human carcinoma) infected with VSV, Coxs, B4, polio-1 virus; type: functional
[7] = test system: Human alphaherpesvirus 1; experiment: Evaluated for minimum inhibitory concentration against KOS, F, McIntyre strains of Herpes simplex virus (HSV-1) in primary rabbit kidney cells; type: functional
[8] = test system: Vesicular stomatitis virus; experiment: Evaluated for minimum inhibitory concentration (MIC) against Vesicular stomatitis virus (VSV); type: functional
[9] = test system: Human immunodeficiency virus 1; experiment: Evaluated for minimum inhibitory concentration (MIC) against MT-4 cells of human immunodeficiency virus type-1 (HIV-1); type: functional, MT4

Row | SMILES | MIC [1] | MIC [2] | MIC [3] | MIC [4] | MIC [5] | MIC [6] | MIC [7] | MIC [8] | MIC [9]
1 | O=c1[nH]c(=O)n([C@H]2C[C@H](O)[C@@H](CO)O2)cc1/C=C/Br [BRIVUDINE] | > 400 mg/L | 20 mg/L (≈ 60 µM) | > 200 mg/L | > 400 mg/L | 7 mg/L (≈ 21 µM) | > 400 mg/L | 0.02 mg/L (≈ 0.06 µM) |  | 
2 | Cc1cn([C@H]2C[C@H](O)[C@@H](CO)[C@@H]2C)c(=O)[nH]c1=O |  | > 400 mg/L | > 400 mg/L | > 400 mg/L | > 400 mg/L | > 400 mg/L | > 400 mg/L | > 400 mg/L | > 250 mg/L
3 | Cc1cn([C@H]2C[C@H](N=[N+]=[N-])[C@@H](CO)O2)c(=O)[nH]c1=O [ZIDOVUDINE] |  |  |  |  |  |  |  |  | 0.001 mg/L (≈ 0.00374 µM)
4 | Cc1cn([C@@H]2C[C@H](CO)[C@@H](O)C2)c(=O)[nH]c1=O | > 200 mg/L | 2 mg/L (≈ 8.32 µM) | 40 mg/L (≈ 166 µM) | > 100 mg/L | 2 mg/L (≈ 8.32 µM) | > 100 mg/L | 0.2 mg/L (≈ 0.832 µM) |  | 
5 | Cc1cn([C@@H]2C[C@H](CO)[C@H](O)C2)c(=O)[nH]c1=O | > 400 mg/L | > 400 mg/L | > 400 mg/L | > 200 mg/L | > 400 mg/L | > 400 mg/L | > 400 mg/L |  | > 250 mg/L
6 | Nc1ncnc2c1ncn2[C@@H]1C[C@H](CO)[C@@H](O)C1 | > 400 mg/L | 100 mg/L (≈ 401 µM) | 100 mg/L (≈ 401 µM) | > 100 mg/L | 20 mg/L (≈ 80.2 µM) | > 100 mg/L | 2 mg/L (≈ 8.02 µM) |  | > 50 mg/L
7 | NC(=O)c1ncn([C@@H]2O[C@H](CO)[C@@H](O)[C@H]2O)n1 [RIBAVIRIN] | 300 mg/L (≈ 1230 µM) | 10 mg/L (≈ 40.9 µM) | > 400 mg/L | 150 mg/L (≈ 614 µM) | > 400 mg/L | 20 mg/L (≈ 81.9 µM) | > 400 mg/L |  | 
8 | Cc1cn([C@H]2CC[C@@H](CO)C2)c(=O)[nH]c1=O | > 400 mg/L | > 400 mg/L | > 400 mg/L | > 400 mg/L | > 400 mg/L | > 400 mg/L | > 400 mg/L |  | > 250 mg/L
9 | Nc1nccc2c1ncn2[C@@H]1C[C@H](CO)[C@@H](O)[C@H]1O [3-DEAZAARISTEROMYCIN A] | 0.7 mg/L (≈ 2.65 µM) | 0.7 mg/L (≈ 2.65 µM) | 150 mg/L (≈ 568 µM) | 0.7 mg/L (≈ 2.65 µM) | > 400 mg/L | 2 mg/L (≈ 7.57 µM) | > 400 mg/L |  | 
10 | Cc1cn([C@H]2C[C@@H](CO)[C@H](O)C2)c(=O)[nH]c1=O | > 400 mg/L | > 400 mg/L |  | > 400 mg/L | > 400 mg/L | > 100 mg/L | > 400 mg/L |  | > 160 mg/L
11 | Cc1cn(C2CC3OCC2C3CO)c(=O)[nH]c1=O (stereo unspecified) | > 400 mg/L | > 400 mg/L | > 400 mg/L | > 400 mg/L | > 400 mg/L | > 400 mg/L | > 400 mg/L |  | > 250 mg/L
